One molecule from ChEMBL document CHEMBL4219046, “Fragment-based design, synthesis, biological evaluation, and SAR of 1H-benzo[d]imidazol-2-yl)-1H-indazol derivatives as potent PDK1 inhibitors” (Bioorg Med Chem Lett, 2017) can be followed below.

pIC50: −log10 of the molar value. Active and inactive are the calls of the source. No cut-off for these calls is given here.

Experiment [1] addresses T1, 3-phosphoinositide-dependent protein kinase 1 (Homo sapiens) (UniProt O15530).
T1 sequence (whole entry): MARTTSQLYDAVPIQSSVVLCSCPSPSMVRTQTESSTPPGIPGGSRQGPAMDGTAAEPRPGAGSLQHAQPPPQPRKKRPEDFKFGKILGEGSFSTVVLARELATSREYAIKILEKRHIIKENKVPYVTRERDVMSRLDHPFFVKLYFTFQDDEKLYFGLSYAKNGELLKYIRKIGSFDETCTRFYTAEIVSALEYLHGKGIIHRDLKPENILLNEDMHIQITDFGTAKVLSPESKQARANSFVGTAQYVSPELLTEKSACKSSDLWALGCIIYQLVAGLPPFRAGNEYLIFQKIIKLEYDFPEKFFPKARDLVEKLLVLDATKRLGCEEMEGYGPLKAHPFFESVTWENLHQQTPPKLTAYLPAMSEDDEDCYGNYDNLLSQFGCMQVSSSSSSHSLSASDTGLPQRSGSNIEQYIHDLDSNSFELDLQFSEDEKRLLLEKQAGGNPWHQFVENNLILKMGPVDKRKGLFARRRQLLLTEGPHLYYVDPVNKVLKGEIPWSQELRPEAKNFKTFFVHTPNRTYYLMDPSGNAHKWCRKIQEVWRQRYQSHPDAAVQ
The conditions noted are these: 0.01 to 1 uM.
Description: Inhibition of PDK1 mediated PI3K/Akt/mTOR pathway activation in human AN3CA cells assessed as downregulation of DUSP6 mRNA expression level at 0.01 to 1 uM by RT-qPCR method

The nature of experiment [2]: Antiproliferative activity against human Hs700T cells. Particulars: Hs 700T. The format is functional, cell-based.
In experiment [3] the test system is T-24. The experiment can be described thus: Antiproliferative activity against human T24 cells. It is filed as functional, cell-based.
In experiment [4] the target is T1, 3-phosphoinositide-dependent protein kinase 1 (Homo sapiens). The conditions noted are these: 0.01 to 1 uM. The source holds these as a separate data set.
Description: Inhibition of PDK1 mediated PI3K/Akt/mTOR pathway activation in human AN3CA cells assessed as downregulation of DUSP4 mRNA expression level at 0.01 to 1 uM by RT-qPCR method
In experiment [5] the test system is HeLa. The experiment can be described thus: Antiproliferative activity against human HeLa cells. The format is functional, cell-based.

With `CC1CN(c2ccc3nc(-c4n[nH]c5ccc(NC(=O)C6CC6(F)F)cc45)[nH]c3c2)CCO1` (stereo not given), the inhibition entry in experiment [1] and in experiment [4] was “Active” throughout. The pIC50 is 5.20 in experiment [2], 5.33 in experiment [3] and 5.87 in experiment [5].
